Measured values from publication PMC2915626, “Isolation and Characterization of a Defensin-Like Peptide (Coprisin) from the Dung Beetle, Copris tripartitus” (International Journal of Peptides, 2009).
Ends that are not written are not given here.

Legend:
S. aureus = test: Broth microdilution assay (MIC); format: cell-based, Staphylococcus aureus
Protocol: (§1) In addition to a radial diffusion assay, antibacterial activities of the peptides were also tested by a broth microdilution assay against E. coli and S. aureus. Briefly, bacteria were grown overnight in TSB to the onset of stationary phase at 37°C with shaking at 200 rpm. The cultures were diluted in a fresh TSB to the final concentration of 2 × 10^4 CFU/mL. A stock solution of each peptide was prepared in 0.01% acetic acid at 640 μg/mL. The peptide solution was then serially diluted in 0.01% acetic acid to 2 μg/mL. After 90 μL aliquots of the bacterial suspension were dispensed into each well of a 96-well polypropylene microtiter plate, 10 μL of peptide solution was added. The antibacterial activities of peptides were assessed by measuring visible turbidity in each well of the plate after 18 hours of incubation at 37°C. MIC was expressed as intervals (a to b), where a was the highest concentration tested at which bacteria were still growing and b was the lowest concentration that caused complete growth inhibition.

E. coli = test: Broth microdilution assay (MIC); format: cell-based, Escherichia coli
Protocol: as §1

[1] = broth microdilution in TSB, 2 × 10^4 CFU/mL, 18 hours at 37°C, visible turbidity, MIC as interval a to b (a highest conc. with growth, b lowest conc. with complete inhibition)

| Substance | MIC (μg/mL) S. aureus (S. aureus; 18 h) [µg/mL] | MIC (μg/mL) E. coli (E. coli; 18 h) [µg/mL] | antibacterial activity against Staphylococcus aureus (in words) (S. aureus; statement of the abstract) | antibacterial activity against Escherichia coli (in words) (E. coli; statement of the abstract) | MIC (μg/mL) S. aureus (S. aureus; [1]) [µg/mL] | MIC (μg/mL) E. coli (E. coli; [1]) [µg/mL] |
| --- | --- | --- | --- | --- | --- | --- |
| LHRIALRKK-NH2 [CopA2] | >64 | >64 |  |  |  |  |
| LLCIALRKK-NH2 [CopA3] | 4 to 8 | 4 to 8 | potent antibacterial activities | potent antibacterial activities |  |  |
| LHLIALRKK-NH2 [CopA1] | >64 | >64 |  |  |  |  |
| LHCIALRKK-NH2 [CopN5(22–30)] |  |  |  |  | >64 | 8 to 16 |
| LRCIALRKK-NH2 [CopA4] | >64 | 16 to 32 |  |  |  |  |
